Results published in US6433022B1, “Spermicide” (Medical Research Council, priority 1997, dated 2002).
pIC50: −log10 of the molar value.

What was measured:
human spermatozoa [1] = assay: Nicotinamide dinucleotide-induced superoxide generation, lucigenin-dependent chemiluminescence; format: cell-based
Text: (§1) ROS generation was monitored by luminometry employing the chemiluminescence probes lucigenin and luminol. Lucigenin is sensitive to the presence of superoxide anion and was used to monitor the free radical responses to NAD(P)H. Luminol, when used in conjunction with horseradish peroxidase (HRP; Sigma Type Vl, 288 U/mg), detects mainly hydrogen peroxide (Aitken et al., 1992) and was used to monitor the responses of spermatozoa to PMA (phorbol 12-myristate, 13-acetate), an activator of protein kinase C. NAD(P)H could not be used with the luminol-peroxidase system because of the generation of high background signals, presumably due to the oxidase reactions of HRP. Photon emission was monitored at 37° C. using the Bermold 9505B luminometer (Berthold, Wilbad, Germany) featuring 6 electronically compensated, peltier cooled, photomultipliers and the results expressed as counts/minute. For both of the probes used, 400 μl of spermatozoa, at a concentration of 10×10^6/ml, were placed in a 3 ml plastic, flat-bottomed plastic tube. For luminol-based reactions, the spermatozoa were suspended in BWW supplemented with Albuminar, but when lucigenin was used the Albuminar was replaced with 1 mg/ml polyvinyl alcohol. A 4 μl aliquot of a 25 mM stock solution of either luminol or lucigenin m-dimethyl sulphoxide (DMSO), was then added to the cell suspension, resulting in a final probe concentration of 250 μM. For the measurement of hydrogen peroxide generation by intact cells, luminol-dependent chemiluminescence was enhanced by addition of 8 μl of HRP, freshly prepared at a concentration of 2 mg/ml in PBS, to give a final HRP concentration of 11.52 U/ml. The luminometer results were recorded as continuous traces and as integrated photon counts over a fixed period of time (5 min).
The ability of human spermatozoa to generate superoxide anion in response to NADPH was monitored by lucigenin-dependent chemiluminescence and compared with its non-phosphorylated and non-reduced counterparts, i.e. NADH, NADP^+ and NAD^+. In addition, the stimulatory properties of an isomer of NADPH, usually non-active in reductive biosynthesis, were examined. All pyridine nucleotides were made up to the required concentration in PBS immediately prior to use. Stock solutions of the nucleotides were made up at concentrations 10 fold higher than the required final working concentration, to allow for a 10 fold dilution on addition to the suspensions of spermatozoa.

human spermatozoa [2] = assay: Quantification of superoxide anion generation by SOD-inhibitable reduction of cytochrome C; format: cell-based; settings: 2 mM, n=5
Method: Superoxide anion generation was quantified spectrophotometrically via the superoxide-dependent reduction of cytochrome C (McCord and Fridovich, 1969). Spermatozoa were used at an increased concentration of 10×10^7/ml in BWW supplemented with PVA (1 mg/ml). An aliquot (400 μl) of this sperm suspension was placed in a 1 ml disposable, plastic cuvette and 50 μl of cytochrome C (Type Vl from horse heart), was added to give a final working concentration of 100 μM. The reference cuvette contained the same ingredients, except that 50 μl of SOD was added to give final concentration of 196 U/ml. Absorbance was monitored at 550 nm and the SOD-inhibitable superoxide generation calculated using an extinction coefficient for reduced cytochrome C of ε=21.1 mM^−1cm^−1.

human spermatozoa [3] = assay: Percentage motility of spermatozoa exposed to NADPH; format: cell-based; settings: doses 0.625 to 10 mM, at least 3 hr
human sperm = assay: Effect of quinones on sperm motility; format: cell-based
Method: Following the preparation of spermatozoa by standard Percoll gradient they were resuspended in homologous seminal plasma to a concentration of 20 million per ml, immediately prior to the beginning of the experiment. 50 μl of the sperm suspension was placed in an eppendorf tube, and the quinone was either added alone or in combination with other reagents, for example, KI, HRP (Horseradish Peroxidase), BHT (butylated hydroxytoluene) etc. depending on the experiment. The volume was made up to 100 μl with BWW/PVA.
The quinone was always the final reagent to be added. […] The sample was gently agitated and 10 μl was placed on a slide and a motility was scored. The aim was to score a motility approximately 20 seconds following the addition of the quinone. There were two controls set up, one motility count taken at the beginning of the experiment (initial control) and one motility count taken at the end of the experiment (final control). The controls consisted of 50 μl of the sperm suspension followed by the addition of 50 μl BWW/PVA. The reason for having two controls was to observe if any changes in sperm motility had occurred simply as a factor of time, i.e. from residing in seminal plasma for a long duration. At all times during the experiment, the spermatozoa were incubated in a hot box at 24° C. All motility experiments were carried out on sperm suspended in seminal plasma unless otherwise stated.

[4] = system: sperm, seminal plasma and serum; assay: Luminol/peroxidase-dependent chemiluminescence detection of quinone-induced H2O2; format: cell-based, human; settings: 50 μM
Text: as §1
Luminol alone measures H2O2; however when used alongside HRP, it can measure the production of H2O2 internally and externally. The sperm were prepared by standard percoll gradient and resuspended in seminal plasma or BWW/PVA to a concentration of 10 million cells per ml. […]

HIV-1 = assay: Virucidal activity using cell-free virus (viral adhesion assay, syncytia in C8166 cells); format: cell-based
Method: A simple, microtitre plate assay was developed (viral adhesion assay) in which the virus was attached to the solid phase by Pol-L-lysine Hydrobromide (PLL, Sigma). Sterile 24 and 96 well plates (Nunc) were coated for 1 hour with 50 μl of 50 μg/ml PLL at room temperature. When using 96 well microtitre plates the outer ring of wells were left uncoated and filled with 250 μl of sterile PBS to counteract the effects of evaporation. The coated wells were washed twice with sterile PBS using a Denley-4 plate washer. 25 μl of RPMI 1640 medium containing HIV-1 (50×TCID50) was added to the wells and incubated for 1 hour at room temperature. The plate was again washed twice with sterile PBS. 25 μl of varying concentrations of the candidate virucide were added to each well for 15 minutes and the virucide removed with two washes of sterile PBS. The T-lymphocyte cell line C8166, at a concentration of 4×10^4 cells in 300Fl RPMI 1640, were added to each well so that the cells formed a uniform monolayer on the adherent virus. After incubation for 72 hours, the number of syncytia in the monolayer gave an accurate measure of the amount of infectious virus present. Wells untreated with virucide were used as positive controls. […] The assay allowed the efficient removal of the candidate virucides or disinfectant and allowed the compound to be assessed for accurately determined contact times.

[5] = system: spermatozoa in seminal plasma; assay: Lucigenin-dependent chemiluminescence detection of quinone-induced superoxide; format: cell-based, human; settings: increasing doses incl. 25 μM and 50 μM; FIG. 1b
Text: as §1, with “A 4 μl aliquot of a 25 mM stock solution of either luminol or lucigenin m-dimethyl sulphoxide (DMSO), was then added to the cell suspension, resulting in a final probe concentration of 250 μM. For the measurement of hydrogen peroxide generation by intact cells, luminol-dependent chemiluminescence was enhanced by addition of 8 μl of HRP, freshly prepared at a concentration of 2 mg/ml in PBS, to give a final HRP concentration of 11.52 U/ml.” left out, “min). […]” for “min).”

spermatozoa = assay: Effect on lipid peroxidation in spermatozoa; format: cell-based, human; settings: exposure to compound vs control

Compound	lucigenin-dependent chemiluminescent response (superoxide anion generation) (human spermatozoa [1]; 500 μM nucleotide)	increase in the chemiluminescent signal (human spermatozoa [1]; addition to spermatozoa, lucigenin, FIG. 5a) [fold]	superoxide generation rate during sudden burst (human spermatozoa [2])	superoxide release rate after stabilisation (human spermatozoa [2]; thereafter)	percentage motility of the spermatozoa (human spermatozoa [3])	mean motility score (human sperm; 50 μM quinone, human sperm) [%]	sperm immobilisation (human sperm; concentrations ranging from 25 μM to 100 μM)	pIC50 (human sperm; human sperm in seminal plasma, motility scored approximately 20 seconds after addition, read-out: ID50, dose-dependent inhibition of sperm motility)	H2O2 production in seminal plasma and serum ([4]; no spermatozoa)	H2O2 production, spermatozoa in BWW ([4]; on addition of the reagent)	time of peak of slow secondary increase in H2O2 after initial exposure ([4]; spermatozoa in BWW) [min]	antiviral activity against HIV-1 (HIV-1; absence of human semen, 15 minutes contact)	antiviral activity against HIV-1, effect of semen (HIV-1; presence of human semen vs absence)	superoxide burst generated by spermatozoa in seminal plasma [5]	lipid peroxidation in spermatozoa (spermatozoa)
NC(=O)C1=CN([C@@H]2O[C@H](COP(=O)(O)OP(=O)(O)OC[C@H]3O[C@@H](n4cnc5c(N)ncnc54)[C@H](OP(=O)(O)O)[C@@H]3O)[C@@H](O)[C@H]2O)C=CC1 [NADPH, Dihydronicotinamide adenine dinucleotide phosphate]	burst of ROS generation	10	99.52+/−9.12 pmol.min^−1. 10^6 spermatozoa	7.65+/−0.97 pmol.min^−1. 10^6 spermatozoa	remained unchanged										
O=C1C=CC(=O)c2ccccc21 [1,4-naphthoquinone]						0.143	completely immobilised	~5.00	no such activity	instantaneous significant burst of H2O2	25 to 30	dose-dependent antiviral activity	potentiated by an order of magnitude	Increasing doses of this compound led to a corresponding increase in superoxide production	lipid peroxidation did not occur
